Test results: ChEMBL document CHEMBL1126385, “-alkoxyphenol leukotriene B4 receptor antagonists” (Bioorg Med Chem Lett, 1992)

System: Cavia porcellus
Test: Effective dose for inhibition of gas trapping in vivo in a guinea pig model of LTB4-induced airway obstruction
Assay type: functional

SMILES: CCOc1cc(CC)c(OCCCCCC(C)(C)c2nn[n-]n2)cc1O.[Na+]
- ED50: 0.3 mg/kg
